Like-named read-outs stand apart in the source and are kept apart here.
Assays:
CSF1R = CSF1R (Homo sapiens (Human), UniProt P07333); experiment: CSF1R enzymatic inhibitory assay (Invitrogen Z'-LYTE, FRET); assay type: biochemical;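 note: kinase phosphorylates a tyrosine on a coumarin/fluorescein FRET peptide, a protease cuts peptide left unphosphorylated, inhibition quantified from the donor-to-acceptor emission ratio with excitation at 400 nm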
[1] = system: P-MAPK (ERK1/2) in CSF-1 stimulated bone-marrow derived macrophages; experiment: Effect of CSF1R inhibitors on MAPK signaling in mouse bone-marrow derived macrophages; assay type: cell-based; conditions: fold change relative to PLX3397 (IC50 inhibitor/IC50 PLX3397), P-MAPK/total MAPK, 10 ng/mL CSF-1
[2] = Z'-LYTE assay, ATP concentration equal to Km, average of at least 2 titration curves, read-out: CSF1R (IC50)

CSF1R, sequence (P07333 20-972): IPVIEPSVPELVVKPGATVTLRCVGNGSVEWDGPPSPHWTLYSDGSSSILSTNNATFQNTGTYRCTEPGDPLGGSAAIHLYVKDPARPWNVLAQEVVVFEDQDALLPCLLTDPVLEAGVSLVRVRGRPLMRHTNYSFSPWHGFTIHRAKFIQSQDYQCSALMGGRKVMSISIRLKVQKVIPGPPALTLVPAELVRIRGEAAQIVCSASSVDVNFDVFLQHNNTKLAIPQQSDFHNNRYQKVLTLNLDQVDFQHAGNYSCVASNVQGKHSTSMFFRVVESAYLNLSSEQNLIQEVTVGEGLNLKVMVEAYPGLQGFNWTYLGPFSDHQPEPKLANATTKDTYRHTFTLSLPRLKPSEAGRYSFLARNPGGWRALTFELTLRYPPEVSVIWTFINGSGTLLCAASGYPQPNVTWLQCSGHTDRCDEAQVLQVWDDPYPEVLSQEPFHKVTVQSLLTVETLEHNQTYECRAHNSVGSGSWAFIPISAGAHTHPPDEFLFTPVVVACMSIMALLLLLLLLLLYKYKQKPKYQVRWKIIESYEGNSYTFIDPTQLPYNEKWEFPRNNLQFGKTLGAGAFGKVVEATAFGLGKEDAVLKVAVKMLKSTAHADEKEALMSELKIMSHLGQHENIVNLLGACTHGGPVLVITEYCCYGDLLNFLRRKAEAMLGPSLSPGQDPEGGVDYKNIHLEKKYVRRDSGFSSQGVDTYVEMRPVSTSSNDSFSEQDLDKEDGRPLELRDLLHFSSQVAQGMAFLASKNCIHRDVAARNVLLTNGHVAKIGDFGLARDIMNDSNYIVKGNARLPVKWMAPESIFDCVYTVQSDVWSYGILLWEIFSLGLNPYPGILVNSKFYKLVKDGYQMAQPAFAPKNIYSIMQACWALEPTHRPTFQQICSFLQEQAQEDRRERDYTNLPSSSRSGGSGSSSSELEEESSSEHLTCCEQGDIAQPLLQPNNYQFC

Structure (SMILES)	IC50 (CSF1R; [2]) [nM]	MAPK (fold) [1] [fold]	IC50 (CSF1R) [nM]
Cc1cccc(CN(C)c2ncnc3[nH]c(-c4ccc(C5CCCC(=O)O5)cc4)cc23)c1 (stereo not drawn) [LR-1-124, 6-(4-(4-(Methyl(3-methylbenzyl)amino)-7H-pyrrolo[2,3-d]pyrimidin6-yl)phenyl)tetrahydro-2H-pyran-2-one]	0.8 ± 0.1	2.1	
CN(Cc1ccccc1O)c1ncnc2[nH]c(-c3ccc(CO)cc3)nc12 [TIA04-009, N-Methyl-N-(2-hydroxybenzyl)-8-(4-(hydroxymethyl)phenyl)-9H-purin-6-amine]	2.3 ± 0.3	>3	
CN(Cc1cccnc1)c1ncnc2[nH]c(-c3ccc(CO)cc3)nc12 [TIA02-166, N-Methyl-N-(pyridin-3-ylmethyl)-8-(4-(hydroxymethyl)phenyl)-9H-purin-6-amine]	2.1 ± 0.4	>3	
CN(CC1CCCO1)c1ncnc2[nH]c(-c3ccc(CO)cc3)nc12 (stereo not drawn) [TIA04-093, N-Methyl-N-(tetrahydrofuran-2-ylmethyl)-8-(4-(hydroxymethyl)phenyl)-9H-purin-6-amine]	2.6 ± 0.3	>3	
CN(Cc1ccccc1)c1ncnc2[nH]c(N3CCOCC3)nc12 [TIA04-105, N-Benzyl-N-methyl-8-morpholino-9H-purin-6-amine]	16 ± 4	>3	
CN(Cc1ccc(F)cc1)c1ncnc2[nH]c(-c3ccc(CO)cc3)nc12 [TIA02-134, N-Methyl-N-(4-fluorobenzyl)-8-(4-(hydroxymethyl)phenyl)-9H-purin-6-amine]	8.8 ± 0.3	>3	
OCc1ccc(-c2nc3c(N4CCCC4c4ccccc4)ncnc3[nH]2)cc1 (stereo not drawn) [TIA02-176, 8-(4-(Hydroxymethyl)phenyl)-6-(2-phenylpyrrolidin-1-yl)-9H-purine]	1.9 ± 0.2	>3	
COc1ccccc1CN(C)c1ncnc2[nH]c(-c3ccc(CO)cc3)nc12 [TIA03-106, N-(2-Methoxybenzyl)-N-methyl-8-(4-(hydroxymethyl)phenyl)-9H-purin-6-amine]	4.2 ± 1.4	>3	
CN(CC1CCOC1)c1ncnc2[nH]c(-c3ccc(CO)cc3)nc12 (stereo not drawn) [TIA04-049, N-Methyl-N-(tetrahydrofuran-3-ylmethyl)-8-(4-(hydroxymethyl)phenyl)-9H-purin-6-amine]	4.6 ± 0.6	>3	
CC(C)C1CCCN1c1ncnc2[nH]c(-c3ccc(CO)cc3)nc12 (stereo not drawn) [TIA04-065]	5.4 ± 2.4	>3	
CN1CCCC(CN(C)c2ncnc3[nH]c(-c4ccc(CO)cc4)nc23)C1 (stereo not drawn) [TIA04-063, N-Methyl-N-(1-methylpiperidin-3-ylmethyl)-8-(4-(hydroxymethyl)phenyl)-9H-purin-6-amine]	53 ± 4	>3	
COc1cccc(CN(C)c2ncnc3[nH]c(-c4ccc(CCC(=O)O)cc4)cc23)c1 [FAB01-23, 3-(4-(4-((3-Methoxybenzyl)(methyl)amino)-7H-pyrrolo[2,3-d]pyrimidin-6-yl)phenyl)propanoic acid]		>5	0.2

More lines, main results first:

IC50 (CSF1R; [2]) [nM]	Structure (SMILES)	MAPK (fold) [1] [fold]	IC50 (CSF1R) [nM]
1.3 ± 0.2	CN(CC1CCCCO1)c1ncnc2[nH]c(-c3ccc(CO)cc3)nc12 (stereo not drawn) [TIA04-095, N-Methyl-N-(oxan-2-ylmethyl)-8-(4-(hydroxymethyl)phenyl)-9H-purin-6-amine]	>3	
1.5 ± 0.2	Cc1cccc(CN(C)c2ncnc3[nH]c(-c4ccc(CO)cc4)nc23)c1 [TIA02-172, N-Methyl-N-(3-methylbenzyl)-8-(4-(hydroxymethyl)phenyl)-9H-purin-6-amine]	>5	
0.3	CN(CC1CCOCC1)c1ncnc2[nH]c(-c3ccc(CO)cc3)nc12 [TIA04-051, N-Methyl-N-(oxan-4-ylmethyl)-8-(4-(hydroxymethyl)phenyl)-9H-purin-6-amine]	1	
0.7	CN(CC1CCCCC1)c1ncnc2[nH]c(-c3ccc(CO)cc3)nc12 [TIA03-024, N-Methyl-N-(cyclohexylmethyl)-8-(4-(hydroxymethyl)phenyl)-9H-purin-6-amine]	0.9	
0.3 ± 0.2	CN(CC1CCCC1)c1ncnc2[nH]c(-c3ccc(CO)cc3)nc12 [TIA03-188, N-Methyl-N-(cyclopentylmethyl)-8-(4-(hydroxymethyl)phenyl)-9H-purin-6-amine]	0.6	
0.6	COc1ccc(CN(C)c2ncnc3[nH]c(-c4ccc(CCC(=O)O)cc4)cc23)cc1OC [FAB 01-24, 3-(4-(4-((3,4-Dimethoxybenzyl)(methyl)amino)-7H-pyrrolo[2,3-d]pyrimidin-6-yl)phenyl)propanoic acid]	>5	
0.2	CN(CC1CCOCC1)c1ncnc2[nH]c(-c3ccc(CCO)cc3)nc12 [TIA05-014, N-Methyl-N-(oxan-4-ylmethyl)-8-(4-(2-hydroxyethyl)phenyl)-9H-purin-6-amine]	1.7	
0.3	CN(CC1CCCCC1)c1ncnc2[nH]c(-c3ccc(CO)cc3)cc12 [TIA05-090, (4-(4-((Cyclohexylmethyl)(methyl)amino)-7H-pyrrolo[2,3-d]pyrimidin-6-yl)phenyl)methanol]	1.0	
1.2 ± 0.2	CN(Cc1ccccc1)c1ncnc2[nH]c(-c3ccccc3CO)nc12 [JKS02-027, (2-(6-(Benzyl(methyl)amino)-9H-purin-8-yl)phenyl)methanol]	>3	
1.2 ± 0.2	CN(CC1CCCCC1)c1ncnc2[nH]c(-c3ccc(CN4CCOCC4)cc3)nc12 [TIA04-117, N-(Cyclohexylmethyl)-N-methyl-8-(4-(4-morpholinomethyl)phenyl)-9H-purin-6-amine]	1.2	
1.4 ± 0.2	CN(Cc1ccccc1Cl)c1ncnc2[nH]c(-c3ccc(CN4CCOCC4)cc3)cc12 [LR-2-091 (2), N-(2-Chlorobenzyl)-N-methyl-6-(4-(morpholinomethyl)phenyl)-7H-pyrrolo[2,3-d]pyrimidin-4-amine]		
